Assay in all cases: DTP human tumour cell line panel, 48 h
In experiment [1] the test system is SF-539.
Experiment [2] deals with SN12C.
For experiment [3], the system named is SNB-75.
Experiment [4] deals with EKVX.
Experiment [5] deals with UACC-62.
Experiment [6] deals with U-251.
Experiment [7] deals with NCI-H23.
In experiment [8] the test system is SF-295.
Experiment [9] deals with SK-MEL-28.
In experiment [10] the test system is M19-MEL.
Experiment [11] has as its system A549.
Experiment [12] has as its system HL-60.
In experiment [13] the test system is COLO 205.
Experiment [14] concerns KM12.
Experiment [15] relates to NCI-H226.
The test system of experiment [16] is SNB-19.
Experiment [17] has as its system SF-268.
The subject of experiment [18] is M14.

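96-well plates; 48 h exposure; 5 concentrations. Endpoints by linear interpolation between flanking doses. Not reached: highest tested concentration assigned. The concentration for 50% growth inhibition is given as GI50.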 Active and inactive are the calls of the source. Rule as the data show it: active = GI50 up to about 1.1 µM and inactive = higher.

For orientation: GI50 means the concentration at which growth is held to half of that of the control. For the compound `CN1CCS(=O)(=O)NC(Cc2ccccc2)C(=O)N2CCCC2C1=O` (stereo not given), the GI50 in experiment [1], in [2], in experiment [3], in experiment [4], in [5] and in experiment [6] was > 100 µM (inactive) in each case. Also, the GI50 in experiment [7], in [8], in experiment [9], in experiment [10], in experiment [11] and in experiment [12] was > 100 µM (inactive) in each case. Moreover, the GI50 in experiment [13], in experiment [14], in experiment [15], in experiment [16] and in experiment [17] was > 100 µM (inactive) in each case.

Regarding `O=C(Nc1ccc(Cl)c(Cl)c1)C(=O)C(C(=O)c1ccccc1-c1ccccc1)C1OC(=O)c2ccccc21` (stereo not given), the GI50 is 10.1 µM (inactive) in [1]; 13 µM (inactive) in experiment [3]; 20.8 µM (inactive) in experiment [4]; 15.8 µM (inactive) in [5]; 9.1 µM (inactive) in experiment [6]; 14.7 µM (inactive) in [18]. In addition, the GI50 is 10.6 µM (inactive) in experiment [7]; 17.1 µM (inactive) in experiment [8]; > 100 µM (inactive) in experiment [9]; 13.1 µM (inactive) in experiment [10]; 21.3 µM (inactive) in [11]; 10.9 µM (inactive) in experiment [12]. The GI50 was 15.6 µM (inactive) in experiment [13], 14.7 µM (inactive) in experiment [14], 3.04 µM (inactive) in experiment [15] and 15.8 µM (inactive) in [17].

In the case of `COc1cc(CCc2ccc(OC(C)=O)cc2)cc(OC)c1OC`, the GI50 is > 100 µM (inactive) in experiment [1]; > 100 µM (inactive) in experiment [2]; 80.5 µM (inactive) in [3]; > 100 µM (inactive) in [4]; > 100 µM (inactive) in experiment [5]; > 100 µM (inactive) in [6]. The GI50 in experiment [18], in experiment [8], in experiment [9], in experiment [10], in experiment [11] and in experiment [12] was > 100 µM (inactive) each time. The GI50 in experiment [13], in experiment [14], in experiment [15], in [16] and in experiment [17] was > 100 µM (inactive) each time.

In the case of `C/C=C/C1(C)/C(=N\O)C(C)(CCC)C(=O)N1O` (stereo not given), the GI50 in [1], in [2], in experiment [3], in [4], in [5] and in [6] was > 100 µM (inactive) in each case. For the same compound, the GI50 in experiment [18], in experiment [7], in experiment [8], in [9], in [10] and in experiment [11] was > 100 µM (inactive) throughout. Also, the GI50 in [12], in experiment [13], in [14], in experiment [15] and in [16] was > 100 µM (inactive) each time.

On to `O=C1C=CC(=CC=C2C=CN(CCCCCCCCCCC(=O)NCCCCCCCCCCCC(=O)O)C=C2)C=C1`, for which the GI50 in experiment [1], in experiment [2], in experiment [3], in experiment [4], in experiment [5] and in experiment [6] was > 100 µM (inactive) throughout. The GI50 in experiment [18], in experiment [7], in [8], in experiment [9], in experiment [10] and in [11] was > 100 µM (inactive) throughout. In addition, the GI50 in [12], in [13], in experiment [14], in experiment [15], in experiment [16] and in experiment [17] was > 100 µM (inactive) throughout.

As to `CCCCCCCCCCCCCS(=O)(=O)O`, the GI50 in experiment [1], in experiment [2], in experiment [3], in experiment [4], in [5] and in experiment [6] was > 100 µM (inactive) each time. The GI50 in [18], in experiment [7], in [8], in [9], in experiment [10] and in [11] was > 100 µM (inactive) each time. Besides, the GI50 in experiment [12], in [13], in experiment [14], in [15], in experiment [16] and in experiment [17] was > 100 µM (inactive) throughout.

Turning to `C#Cc1cc(CN(CC(=O)OC(C)(C)C)CC(=O)OC(C)(C)C)nc(CN(CC(=O)OC(C)(C)C)CC(=O)OC(C)(C)C)c1`, the GI50 is 15.2 µM (inactive) in experiment [1]; 6.75 µM (inactive) in [2]; 11.6 µM (inactive) in experiment [3]; 11.9 µM (inactive) in experiment [4]; 4.26 µM (inactive) in experiment [5]; 5.07 µM (inactive) in experiment [6]. For the same compound, the GI50 was 5.89 µM (inactive) in experiment [18]; 4.74 µM (inactive) in [7]; 4.39 µM (inactive) in experiment [8]; 7.5 µM (inactive) in [9]; 6.4 µM (inactive) in experiment [10]; 7.85 µM (inactive) in experiment [11]. In addition, the GI50 was 2.98 µM (inactive) in experiment [12]; 7.36 µM (inactive) in experiment [13]; 3.72 µM (inactive) in [14]; 0.498 µM (active) in experiment [15]; 2.74 µM (inactive) in experiment [16]; 4.8 µM (inactive) in [17].

For `NC(=O)N/N=C1/CCCC/C1=C\c1ccccc1`, the GI50 is > 100 µM (inactive) in experiment [1]; > 100 µM (inactive) in experiment [2]; 76.6 µM (inactive) in [3]; > 100 µM (inactive) in experiment [4]; > 100 µM (inactive) in experiment [5]; > 100 µM (inactive) in [6]. Besides, the GI50 in [18], in experiment [7], in [8], in experiment [9], in [10] and in [11] was > 100 µM (inactive) in each case. Besides, the GI50 in experiment [12], in experiment [13], in [14], in experiment [15] and in [17] was > 100 µM (inactive) each time.

As to `COc1ccccc1/C=C1\CCC(CCN2CCOCC2)C1=O` (stereo not given), the GI50 is > 100 µM (inactive) in experiment [1]; > 100 µM (inactive) in [2]; 49 µM (inactive) in experiment [3]; > 100 µM (inactive) in [4]; > 100 µM (inactive) in experiment [5]; > 100 µM (inactive) in [18]. Also, the GI50 in [7] is > 100 µM (inactive); in experiment [8], > 100 µM (inactive); in [9] it was > 100 µM (inactive); in [10], > 100 µM (inactive); in [11] it was > 100 µM (inactive); in experiment [12], 31.5 µM (inactive). Moreover, the GI50 in experiment [14], in [15], in experiment [16] and in experiment [17] was > 100 µM (inactive) each time.

Regarding `N#C/C(=C\c1ccccc1)C(NO)Nc1ccccc1` (stereo not given), the GI50 is 70.3 µM (inactive) in [1]; > 100 µM (inactive) in experiment [2]; 50.6 µM (inactive) in [3]; > 100 µM (inactive) in experiment [4]; 42.1 µM (inactive) in [5]; 30.3 µM (inactive) in [6]. For the same compound, the GI50 in experiment [18], in [7], in experiment [8], in [9], in experiment [10] and in experiment [11] was > 100 µM (inactive) throughout. Also, the GI50 in experiment [12] was > 100 µM (inactive); in [13], 45.3 µM (inactive); in [14], > 100 µM (inactive); in experiment [15] it was > 100 µM (inactive); in experiment [16], 60.4 µM (inactive); in [17], 65.3 µM (inactive).

`O=C(CC(=O)C1CCOC1=O)C(=O)Nc1ccc(Cl)cc1Cl` (stereo not given): the GI50 in experiment [1] is > 100 µM (inactive); in experiment [2], > 100 µM (inactive); in experiment [3] it was 53.1 µM (inactive); in experiment [4], > 100 µM (inactive); in experiment [5], > 100 µM (inactive); in [6] it was > 100 µM (inactive). Further, the GI50 in experiment [18], in experiment [7], in experiment [8], in [9], in [10] and in experiment [11] was > 100 µM (inactive) each time. Besides, the GI50 in experiment [12], in experiment [13], in experiment [14], in [15], in experiment [16] and in experiment [17] was > 100 µM (inactive) throughout.
